System: BC-1 cells
Test: MTT assay, deletion and mutant peptides
Type: cell-based, human
Description: Fig. 2 Viral and cellular responses to K-Rta peptide; identification of VGN50. a Protein sequence alignment. Homologous protein sequences were searched for with BLAST and extracted from other gamma-herpesviral homologs. The consensus protein sequence is depicted at the bottom of table. b Peptide design. Deletion peptides were designed based on the consensus sequence in a. The TAT protein sequence was used as a cell-penetrating peptide (CPP) and placed downstream from the K-Rta protein sequence. (d-R) D amino acid arginine, (ORN) ornithine, (bAla) beta alanine. c Sub cellular peptide localization. Cy5-labeled peptide 1 was used to track subcellular localization. Nuclei were visualized by DAPI staining. The scale is indicated in the panel. d MTT assays with deletion and mutant peptides. Peptide listed in b were incubated with BC-1 cells and MTT conversion was measured 48 h after incubation. The OD of mock-treated samples were set as 100%, and OD from detergent-treated cells were set as 0%. The amount of each peptide used for incubation is depicted along the x-axis. Mean percentage viability ±SD were calculated for each treatment group (n = 3 samples). Peptide 1 was renamed as VGN50. e Flow cytometry analyses of cell proliferation and apoptosis induction. Cells were incubated with VGN50 or mutant peptide (three alanine substitutions) for 24 h followed by measurements of percentage cell proliferation (Ki67 staining) and apoptosis induction (Annexin V staining). Standard deviation bars are included. (n = 3) Two-way Anova, followed by Sidak’s multiple comparisons test. f The effect of VGN50 on various cancer cell types. MTT assays were performed with the indicated cell lines treated with various VGN50 concentrations. The OD of mock-treated samples were set as 100%, and OD from detergent-treated cells were set as 0%. Mean percentage viability ±SD was calculated for each treatment (n = 3 samples/treatment). g Viability assay with flow cytometry. Cell viability was measured in triplicate with live/dead staining and the cell killing effects on cancer cells was compared with normal peripheral blood mononuclear cells (PBMC) from three healthy donors. Results are presented as mean percentage viability ±SD (n = 3 samples/group). f, g Ordinary one-way Anova, followed by Tukey’s multiple comparisons test. […]
Leukoreduction system chambers (LRS) from healthy donors were purchased from Vitalant. […] Cell death, apoptosis, and proliferation were analyzed by flow cytometry (BD Acuri) after intracellular staining with anti-humanKi67-Alexa488 (Biolegend, 1:100) along with the isotype control antibody, annexin-V-FITC with 7-AAD staining (Biolegend) according to the manufacture’s protocol, Live/dead Fixable Red Dead Cell staining kit (Invitrogen) according to the manufacture’s protocol, or MTT assay. […]

Compound: CC[C@H](C)[C@H](NC(=O)[C@H](CO)NC(=O)[C@H](CO)NC(=O)[C@H](CC(C)C)NC(=O)[C@H](CC(C)C)NC(=O)[C@H](C)NC(=O)[C@H](CC(=O)O)NC(=O)[C@H](CC(=O)O)NC(=O)CCNC(=O)[C@H](CCCNC(=N)N)NC(=O)[C@H](CCCNC(=N)N)NC(=O)[C@H](CCCNC(=N)N)NC(=O)[C@H](CCCN)NC(=O)[C@H](CCCNC(=N)N)NC(=O)[C@H](CCCNC(=N)N)NC(=O)[C@H](CCCCN)NC(=O)[C@H](CCCCN)NC(=O)[C@H](N)CCCNC(=N)N)C(=O)N[C@@H](CC(C)C)C(=O)N[C@@H](CCC(N)=O)C(=O)NCC(=O)N[C@@H](CC(C)C)C(=O)N[C@@H](Cc1ccc(O)cc1)C(=O)O [Pep 4]
- Fold less effective compared to Pep 1 and 3 (MTT) (BC-1): ~ 4 fold

Compound: CC[C@H](C)[C@H](NC(=O)[C@H](CO)NC(=O)[C@H](CO)NC(=O)CCNC(=O)[C@H](CCCNC(=N)N)NC(=O)[C@H](CCCNC(=N)N)NC(=O)[C@H](CCCNC(=N)N)NC(=O)[C@H](CCCN)NC(=O)[C@H](CCCNC(=N)N)NC(=O)[C@H](CCCNC(=N)N)NC(=O)[C@H](CCCCN)NC(=O)[C@H](CCCCN)NC(=O)[C@H](N)CCCNC(=N)N)C(=O)N[C@@H](CC(C)C)C(=O)N[C@@H](CCC(N)=O)C(=O)NCC(=O)N[C@@H](CC(C)C)C(=O)N[C@@H](Cc1ccc(O)cc1)C(=O)N[C@@H](CCC(N)=O)C(=O)N[C@@H](CC(C)C)C(=O)N[C@@H](CC(=O)O)C(=O)N[C@H](C(=O)O)[C@@H](C)O [Pep 2]
- Reduction of cell viability (MTT) compared to untreated control (BC-1, 64 μM): 20%

Compound: CC[C@H](C)[C@H](NC(=O)[C@H](CO)NC(=O)[C@H](CO)NC(=O)[C@H](CC(C)C)NC(=O)[C@H](CC(C)C)NC(=O)[C@H](C)NC(=O)[C@H](CC(=O)O)NC(=O)CCNC(=O)[C@H](CCCNC(=N)N)NC(=O)[C@H](CCCNC(=N)N)NC(=O)[C@H](CCCNC(=N)N)NC(=O)[C@H](CCCN)NC(=O)[C@H](CCCNC(=N)N)NC(=O)[C@H](CCCNC(=N)N)NC(=O)[C@H](CCCCN)NC(=O)[C@H](CCCCN)NC(=O)[C@H](N)CCCNC(=N)N)C(=O)N[C@@H](CC(C)C)C(=O)N[C@@H](CCC(N)=O)C(=O)NCC(=O)N[C@@H](CC(C)C)C(=O)N[C@@H](Cc1ccc(O)cc1)C(=O)N[C@@H](CCC(N)=O)C(=O)N[C@@H](CC(C)C)C(=O)N[C@@H](CC(=O)O)C(=O)N[C@H](C(=O)O)[C@@H](C)O [Pep 3]
- Reduction of cell viability (MTT) compared to untreated control (BC-1, 16 µM): 90%

Source: publication PMC8639922, “KSHV transactivator-derived small peptide traps coactivators to attenuate MYC and inhibits leukemia and lymphoma cell growth” (Communications Biology, 2021)
